Data on five compounds can be found in US12408604B2, “Method for producing avenanthramide-rich oats using active elicitors” (KOREA RESEARCH INSTITUTE OF BIOSCIENCE AND BIOTECHNOLOGY, priority 2020, dated 2025).

Holding throughout (assay type): in vivo
One assay relates to Choyang oats. The assay can be described thus: Production (content) of avenanthramides in germinated oats treated with elicitors, HPLC analysis. The settings on record: for production of avenanthramides compared to control group: Example 3, FIG. 2, SA vs control DW, ABA vs control EtOH; for production of avenanthramides over tested concentrations: Example 5, MJ 10-100 μM, ABA 10-300 μM; for synthesis amount / content of avenanthramides in oats compared to other elicitors: Examples 3 and 4, FIG. 2. The method, then: In an embodiment of the present invention, a domestic cultivated breed, Choyang oats, was used. The Choyang oat seeds were immersed for 12 hours, and then sterilized at 50° C. for 10 minutes and used. Two sheets of sterile filter paper were laid on a plant culture dish, poured with 7 ml of water, and then the sterilized Choyang oat seeds were placed and cold-treated at 4° C. for two days. The Choyang oat seeds were cultured under culture conditions of 25° C. and a photoperiod of 16L:8D.
Analysis of avenanthramides of germinated oats recovered in Example of the present invention was performed as follows. First, the obtained germinated oats were powdered using liquid nitrogen. 0.1 g of the oat powder was extracted with 1 ml of 80% methanol, and then sonicated at 50° C. for 20 minutes, extracted, and then centrifuged to obtain an oat extract from an upper layer. The extracted filtrate was dried by injecting air, and the dried product was dissolved in 200 μl of 80% methanol, and filtered using 0.2 μm PTFE (hydrophilic, ADVANTEC, Japan), and the sample was used for high-performance liquid chromatography (HPLC) analysis. A pump system used 4 solvent pumps (quaternary pumps), and a column used ZORBAX SB-18 ([…], 4.6×150 mm) from Agilent, and a mobile phase was analyzed by using gradient elution using water (A, 5% acetonitrile, 0.1% formic acid) and acetonitrile. (B, 0.1% formic acid).
After treatment with the elicitors for 3 days, the avenanthramides were harvested and HPLC was performed. The elicitors used at this time were methyl jasmonate (MJ), abscisic acid (ABA), salicylic acid (SA), ethephon (ET), methyl viologen (MV), and chitosan (CHI). DW was used as a solvent for MV, CHI, and SA, and EtOH was used as a solvent for ET, MJ, and ABA. A case of treating only DW and EtOH (0.1%), which are solvents of each elicitor, was set as a control.
Like in Example 3, 10 μM, 20 μM, 25 μM, 50 μM, 75 μM, and 100 μM of MJ and 10 μM, 20 μM, 25 μM, 50 μM, 75 μM, 100 μM, and 300 μM of ABA were treated by concentration on day 2 after germination, recovered on day 5 after germination, then frozen using liquid nitrogen, and stored at −80° C. until extraction and used. As a control, EtOH, a solvent of MJ and ABA, was treated at a concentration of 0.1%. The experimental results were shown in Tables 2 and 3 and FIGS. 4 and 5 below. […]

The test system of the next assay is AsPAL. Put plainly: qRT-PCR transcriptional expression of avenanthramide biosynthetic gene AsPAL in elicitor-treated oats. Particulars: single elicitor treatment, Example 4, FIG. 3. As for the experimental part: (§1) Specifically, total RNA was isolated from the recovered oats, and cDNA was synthesized from the isolated total RNA using a First-Strand CDNA Synthesis Kit (Fermantas, Canada). By using the synthesized cDNA, qRT-PCR was performed on avenanthramide biosynthesis-related genes.
(§2) For the qRT-PCR amplification, a Quick Guide from BIOFACT was used, and a process of initial denaturation at 95° C. for 15 minutes and denaturation at 95° C. for 20 seconds, binding and elongation at […] for 40 seconds was repeated 40 times, and melting curve analysis was performed at 65° C. to 95° C. by 1° C. for 0.5 second.
(§3) Primers for avenanthramides biosynthesis genes and actin qRT-PCR used for the experiment were as follows.

A further assay relates to AsHHT4. The assay can be described thus: qRT-PCR transcriptional expression of avenanthramide biosynthetic gene AsHHT4 in elicitor-treated oats. The settings on record: single elicitor treatment, Example 4, FIG. 3. The method, then:
as §1, §2, §3

The mark [1] stands for this setting: Example 3, elicitor treated on day 2 after germination induction for 3 days, concentration not given.
[2] abbreviates: Example 3, total avenanthramides, control DW for MV, CHI, SA, control EtOH for ET, MJ, ABA.
Where [3] appears, read: 10 μM elicitor, control EtOH 0.1%.
Where [4] appears, read: 10 μM elicitor, treated day 2, recovered day 5 after germination.
Setting [5] is: 20 μM elicitor, control EtOH 0.1%.
[6] abbreviates: 20 μM elicitor, treated day 2, recovered day 5 after germination.
Setting [7] is: 25 μM elicitor, control EtOH 0.1%.
Setting [8] is: 25 μM elicitor, treated day 2, recovered day 5 after germination.
The mark [9] stands for this setting: 50 μM elicitor, control EtOH 0.1%.
[10] abbreviates: 50 μM elicitor, treated day 2, recovered day 5 after germination.
Where [11] appears, read: 75 μM elicitor, control EtOH 0.1%.
The mark [12] stands for this setting: 75 μM elicitor, treated day 2, recovered day 5 after germination.
[13] abbreviates: 100 μM elicitor, control EtOH 0.1%.
Where [14] appears, read: 100 μM elicitor, treated day 2, recovered day 5 after germination.
Setting [15] is: 300 μM elicitor, treated day 2, recovered day 5 after germination.

As for `C[n+]1ccc(-c2cc[n+](C)cc2)cc1` [MV, methyl viologen], in the assay on Choyang oats (setting [1]), the avnA is listed as 95.37 mg/kg, FW; the avnB is recorded as 169.01 mg/kg, FW; the avnC is reported as 84.14 mg/kg, FW; the total is recorded as 348.52 mg/kg, FW. The Compared to control with Choyang oats (setting [2]) came to 3.74%.
Regarding `CC/C=C\C[C@H]1C(=O)CC[C@@H]1CC(=O)OC` [MJ, methyl jasmonate], the Compared to control in the assay on Choyang oats (setting [3]) is on record as 37.41%; in the assay on Choyang oats (setting [5]) it was 45.03%; in the assay with Choyang oats (setting [7]) it was 57.97%; in the assay on Choyang oats (setting [9]), 99.80%; with Choyang oats (setting [11]), 137.67%; in the assay on Choyang oats (setting [13]), 88.13%. The Compared to control with Choyang oats (setting [2]) came out at 150.63%. Besides, the avnA in the assay with Choyang oats (setting [4]) is given as 93.22 mg/kg, FW; with Choyang oats (setting [6]), 98.32 mg/kg, FW; in the assay with Choyang oats (setting [8]), 105.54 mg/kg, FW; in the assay on Choyang oats (setting [10]), 147.03 mg/kg, FW; in the assay with Choyang oats (setting [12]), 179.81 mg/kg, FW; in the assay with Choyang oats (setting [14]) it was 138.82 mg/kg, FW. The avnA in the assay with Choyang oats (setting [1]) is 190.07 mg/kg, FW. For the same compound, the avnB with Choyang oats (setting [4]) is recorded as 163.98 mg/kg, FW; in the assay with Choyang oats (setting [6]), 168.66 mg/kg, FW; in the assay with Choyang oats (setting [8]) it was 200.86 mg/kg, FW; in the assay on Choyang oats (setting [10]), 222.81 mg/kg, FW; in the assay on Choyang oats (setting [12]), 268.73 mg/kg, FW; in the assay on Choyang oats (setting [14]) it was 218.47 mg/kg, FW. In addition, the avnB in the assay on Choyang oats (setting [1]) is given as 260.43 mg/kg, FW. For the same compound, the avnC in the assay with Choyang oats (setting [4]) is given as 77.35 mg/kg, FW; in the assay on Choyang oats (setting [6]) it was 86.12 mg/kg, FW; in the assay with Choyang oats (setting [8]) it was 78.2 mg/kg, FW; in the assay with Choyang oats (setting [10]), 116.59 mg/kg, FW; in the assay with Choyang oats (setting [12]) it was 130.08 mg/kg, FW; in the assay on Choyang oats (setting [14]), 100.73 mg/kg, FW. The avnC in the assay with Choyang oats (setting [1]) is recorded as 132.39 mg/kg, FW. Moreover, the total in the assay with Choyang oats (setting [4]) is recorded as 334.55 mg/kg, FW; in the assay on Choyang oats (setting [6]), 353.1 mg/kg, FW; with Choyang oats (setting [8]) it was 384.6 mg/kg, FW; in the assay with Choyang oats (setting [10]) it was 486.43 mg/kg, FW; in the assay on Choyang oats (setting [12]), 578.62 mg/kg, FW; with Choyang oats (setting [14]) it was 458.02 mg/kg, FW. Also, in the assay on Choyang oats (setting [1]), the total is on record as 582.89 mg/kg, FW. The “production of avenanthramides compared to control group” value (shortened to “production … compared to control group”) with Choyang oats (CHI, MJ) is “significantly increased”. Besides, the “production of avenanthramides over tested concentrations” value in the assay on Choyang oats was “increased at all concentrations”. Further, the “synthesis amount / content of avenanthramides in oats compared to other elicitors” value with Choyang oats is “most increased”; in the assay with Choyang oats (listed as methyl jasmonate), “increased most”. Besides, the “largest amount of avenanthramides produced” value in the assay on Choyang oats (MJ at a concentration of 75 μM (FIG. 4)) was “up to 578.6 mg/kg”. In the assay on Choyang oats (MJ at concentrations of 10 μM to 100 μM), the “production of avenanthramides in oats” value is reported as “significantly increased”. Further, the “expression of AsPAL gene” value in the assay on AsPAL is recorded as “increased”. The “expression of AsHHT4 gene” value in the assay with AsHHT4 was “increased”.
For the compound `O=P(O)(O)CCCl` [ET, ethephon], in the assay with Choyang oats (setting [1]), the avnA is recorded as 86 mg/kg, FW; the avnB is listed as 145.36 mg/kg, FW; the avnC is recorded as 74.96 mg/kg, FW; the total is 306.32 mg/kg, FW. The Compared to control in the assay with Choyang oats (setting [2]) was determined as 31.71%.
Take `O=C(O)c1ccccc1O` [SA, salicylic acid]: in the assay on Choyang oats (CHI, MJ), the “production … compared to control group” value is “slightly decreased”. Also, in the assay on Choyang oats (setting [1]), the avnA is 90.53 mg/kg, FW; the avnB was 149.58 mg/kg, FW; the avnC is given as 64.34 mg/kg, FW; the total is 304.45 mg/kg, FW. Moreover, the Compared to control in the assay on Choyang oats (setting [2]) is −9.38%.
With `CC1=CC(=O)CC(C)(C)[C@@]1(O)/C=C/C(C)=C\C(=O)O` [ABA, abscisic acid], the Compared to control is 176.85% in the assay on Choyang oats (setting [3]); 185.33% in the assay on Choyang oats (setting [5]); 225.40% with Choyang oats (setting [7]); 240.45% with Choyang oats (setting [9]); 217.58% in the assay on Choyang oats (setting [11]); 184.80% in the assay with Choyang oats (setting [13]). Besides, the Compared to control is listed as 189.98% with Choyang oats (300 μM elicitor, control EtOH 0.1%) and 176.42% in the assay on Choyang oats (setting [2]). For the same compound, the avnA was 177.8 mg/kg, FW in the assay with Choyang oats (setting [4]); 185.34 mg/kg, FW in the assay on Choyang oats (setting [6]); 202.56 mg/kg, FW with Choyang oats (setting [8]); 206.95 mg/kg, FW with Choyang oats (setting [10]); 211.62 mg/kg, FW with Choyang oats (setting [12]); 186.05 mg/kg, FW with Choyang oats (setting [14]). In addition, the avnA in the assay with Choyang oats (setting [15]) was 193.65 mg/kg, FW; in the assay with Choyang oats (setting [1]), 193.78 mg/kg, FW. For the same compound, the avnB with Choyang oats (setting [4]) is recorded as 299.1 mg/kg, FW; in the assay with Choyang oats (setting [6]), 319.67 mg/kg, FW; in the assay with Choyang oats (setting [8]), 363.51 mg/kg, FW; in the assay with Choyang oats (setting [10]), 385.73 mg/kg, FW; in the assay with Choyang oats (setting [12]), 328.63 mg/kg, FW; in the assay on Choyang oats (setting [14]), 309.78 mg/kg, FW. Also, the avnB in the assay with Choyang oats (setting [15]) is 328.02 mg/kg, FW; in the assay with Choyang oats (setting [1]), 207.37 mg/kg, FW. The avnC was 197.11 mg/kg, FW in the assay on Choyang oats (setting [4]); 189.65 mg/kg, FW in the assay on Choyang oats (setting [6]); 226.14 mg/kg, FW in the assay with Choyang oats (setting [8]); 236.19 mg/kg, FW in the assay with Choyang oats (setting [10]); 232.94 mg/kg, FW with Choyang oats (setting [12]); 197.55 mg/kg, FW in the assay with Choyang oats (setting [14]). Besides, the avnC is reported as 184.32 mg/kg, FW with Choyang oats (setting [15]) and 241.72 mg/kg, FW in the assay with Choyang oats (setting [1]). Also, the total is 674.01 mg/kg, FW with Choyang oats (setting [4]); 694.66 mg/kg, FW in the assay on Choyang oats (setting [6]); 792.21 mg/kg, FW with Choyang oats (setting [8]); 828.87 mg/kg, FW in the assay on Choyang oats (setting [10]); 773.19 mg/kg, FW with Choyang oats (setting [12]); 693.38 mg/kg, FW with Choyang oats (setting [14]). Moreover, the total is given as 705.99 mg/kg, FW in the assay with Choyang oats (setting [15]) and 642.87 mg/kg, FW in the assay with Choyang oats (setting [1]). In addition, the “largest amount of avenanthramides produced” value in the assay with Choyang oats (ABA at a 50 μM concentration (FIG. 5)) is reported as “up to 828.8 mg/kg”. Further, the “production of avenanthramides in oats” value in the assay on Choyang oats (ABA at concentrations of 20 to 300 μM) is “significantly increased”. In the assay on Choyang oats (Example 3), the “production of avenanthramide C” value was “specifically increased the most”. Also, the “production … compared to control group” value in the assay on Choyang oats (CHI, MJ) was “significantly increased”. For the same compound, the “production of avenanthramides over tested concentrations” value in the assay on Choyang oats is listed as “increased at all concentrations”. Also, the “synthesis amount / content of avenanthramides in oats compared to other elicitors” value is on record as “most increased” with Choyang oats and “increased most” in the assay with Choyang oats (listed as abscisic acid). In addition, the “expression of AsPAL gene” value with AsPAL was “increased”. For the same compound, the “expression of AsHHT4 gene” value in the assay with AsHHT4 is “increased”.
